Data published in patent publication US8592466B2, “Methods for treating conditions caused by higher-than-normal dopaminergic activity in basal ganglia” (Neuropill, Inc., priority 2008, dated 2013).
Converted amounts (≈) assume the structure as drawn.

Experiments:
[1] = Cocaine and BE pharmacokinetics under RPR 102681 treatment; conditions: post-treatment RPR 102681 doses vs baseline
CCK-B receptor = molecular target: T1, CCK-B receptor (Homo sapiens, UniProt P32239); experiment: CCK-B receptor antagonism (statement)
T1 sequence (P32239 1-447): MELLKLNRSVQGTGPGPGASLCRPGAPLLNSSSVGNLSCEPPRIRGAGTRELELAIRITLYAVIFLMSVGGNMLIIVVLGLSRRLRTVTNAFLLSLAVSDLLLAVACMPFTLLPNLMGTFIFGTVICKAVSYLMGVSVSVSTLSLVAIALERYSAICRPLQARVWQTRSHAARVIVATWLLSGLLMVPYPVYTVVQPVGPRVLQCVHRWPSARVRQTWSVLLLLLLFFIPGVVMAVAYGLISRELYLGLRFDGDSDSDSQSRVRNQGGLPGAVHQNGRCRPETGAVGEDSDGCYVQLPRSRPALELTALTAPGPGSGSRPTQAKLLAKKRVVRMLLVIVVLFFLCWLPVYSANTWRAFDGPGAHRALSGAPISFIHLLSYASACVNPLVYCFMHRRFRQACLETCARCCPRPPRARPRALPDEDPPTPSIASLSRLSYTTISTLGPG

[2] = cited from earlier work
[3] = Phase I cocaine interaction study: 12-lead ECG; type: in vivo, humans
Protocol: Changes in ECG readings during saline infusion as compared to those taken during cocaine infusions were also reported.
A 12 Lead ECG was scheduled at Pre-Intake Screening, Intake Screening, Discharge and follow-up all of which are non-infusion days. […] All subjects completed the non-infusion ECG's at baseline and discharge.
To evaluate subjects' responses to cocaine infusion, measurements after cocaine 40 mg infusion were compared to those prior to any infusion (reading at −10 min). Readings at 4 min and 40 min were used when the first infusion was cocaine while readings at 64 min and 100 min were used when the second infusion was cocaine. […] The RPR 102681 group also had decreased RR and QT duration from baseline at 40 min post cocaine infusion on day 15. In the placebo group, some scattered significant decreases from baseline were observed including PR duration at 4 min post cocaine on day 8 and RR duration at 4 min post cocaine on day 8 and 15. […] However, the statistical significance might not hold if multiplicity adjustment was performed in these multiple comparisons.

[4] = NIH study: treatment of cocaine abuse; conditions: humans
[5] = Solubility in organic solvents and aqueous media; type: physicochemical
serum prolactin = experiment: Serum prolactin radioimmunoassay; type: in vivo, humans
Protocol: Blood for prolactin level determinations were collected on day 0 at 6:00 A.M. before breakfast (7:00 A.M.) and also three times a day on days 15, 22 and 29 with first blood draw performed at 6:00 A.M. before the morning dose of RPR 102681 (6:05 A.M.) and the other two at 30 minutes after each i.v. infusion. Prolactin levels on days 15, 22, and 29 were compared between RPR 102681 and placebo cohorts to determine the extent to which prolactin levels are modified by the administration of RPR 102681 using repeated measures ANOVA. Changes in prolactin level induced by 40 mg cocaine infusion along with RPR 102681 (days 15, 22 and 29) were compared for each subject by RPR 102681 dose level using repeated measures ANOVA.
Prolactin concentrations were determined using a commercially available radioimmunoassay (Coat-A-Count® Prolactin IRMA, Diagnostic Products Corporation, Los Angeles, Calif.). Calibrator and QCs (CONE, lots #019 and 020) were also supplied by the manufacturer. Fifty microliters of calibrators, QCs and study samples were added to prolactin polyclonal antibody-coated tubes. This was followed by 200 μL of ^125I-labeled prolactin monoclonal antibodies, followed by shaking for 2 hours. The tubes were decanted and drained; 2 mLs of buffered wash solution was added for 1-2 minutes; the tubes were again decanted and drained; this was followed by a second wash step. After thorough draining, the radioactivity in the tubes was determined from 1 minute counts using a Packard Cobra II gamma counter (Downers Grove, Ill.). In theory, the ^125I-labeled prolactin monoclonal antibodies bind only to prolactin bound to the antibody coated onto the tubes. The radioactivity retained in the tube increases as does the amount of prolactin in the samples. The software for the gamma counter generates a standard curve based on the log of the concentration and the log of the B/Bo for the calibrators. This curve is used to back-calculate the concentration of prolactin in the samples. […]

[6] = 12 healthy adult human subjects; most events, except for one subject; cited from earlier work

SMILES: CC(C(=O)O)c1cccc(NC(=O)NCC(=O)N2C(C(=O)OC(C)(C)C)CSC2c2ccccc2F)c1 [RPR 102681, (2S)-2-{3-[3-({[(2R,4R)-4-tert-Butoxycarbonyl-2-(2-fluorophenyl)]-3-thiazolidinyl}carbonylmethyl)ureido]phenyl}propionic acid]
- cocaine and BE pharmacokinetic parameters, difference from baseline [1]: No statistically significant differences
- CCK-B receptor antagonism (CCK-B receptor): potent CCK-B receptor antagonist
- diarrhea ([2]; first clinical study): 2 occurrences
- euphoria ([2]; first clinical study): 2 occurrences
- headaches ([2]; first clinical study): 3 occurrences
- postural hypotension ([2]; first clinical study): 6 occurrences
- somnolence ([2]; first clinical study): 3 occurrences
- flatulence ([2]; second clinical study): 4 occurrences
- headache ([2]; second clinical study): 1 occurrences
- pharyngitis ([2]; second clinical study): 4 occurrences
- serious adverse events ([2]; two clinical studies in France and two NIH studies): no serious adverse events
- PR/RR/QT duration following cocaine infusion vs pre infusion ([3]; cocaine 40 mg infusion): seemed to decrease
- clinical significance of PR/RR/QT changes ([3]; cocaine 40 mg infusion): not clinically significant
- pre infusion RR and QT duration vs intake screening ([3]; days 8, 15, 22, 29): No significant difference
- pre infusion PR duration vs intake screening ([3]; days 8, 15, 22, 29, Signed Rank Test): significantly longer
- ECG mean values for VR, PR, QT, RR and QRS ([3]; non-infusion days): within normal range
- efficacy in treating cocaine abuse [4]: ineffective
- solubility ([5]; acetone, organic solvent or mixture): 250 mg/mL (≈ 470 mM)
- solubility ([5]; aqueous media, aqueous buffer, pH less than 6): < 1 mg/mL
- solubility ([5]; diethyl ether, organic solvent or mixture): 100 mg/mL (≈ 188 mM)
- solubility ([5]; dimethylformamide, organic solvent or mixture, dimenthylformamide): 1000 mg/mL (≈ 1880 mM)
- solubility ([5]; ethanol, organic solvent or mixture): 1000 mg/mL (≈ 1880 mM)
- solubility ([5]; ethyl acetate, organic solvent or mixture): 400 mg/mL (≈ 752 mM)
- solubility ([5]; methylene chloride, organic solvent or mixture): 500 mg/mL (≈ 941 mM)
- solubility ([5]; sodium phosphate, pH 7.4, aqueous buffer): 20 mg/mL (≈ 37.6 mM)
- solubility ([5]; toluene, organic solvent or mixture): 100 mg/mL (≈ 188 mM)
- solubility ([5]; water): 0.1 mg/mL (≈ 0.188 mM)
- post-cocaine prolactin value vs post-saline value (serum prolactin; RPR 102681 group, day 29): significantly lower
- serum prolactin levels, RPR 102681 vs placebo subjects (serum prolactin; day 0 and pre-infusion days 15, 22, 29): no significant differences
- serum prolactin response to cocaine or saline infusion, RPR 102681 vs placebo (serum prolactin; infusion days 15, 22, 29): no significant difference
- severity of adverse events and treatment-associated adverse events [6]: mild or moderate
